# Patent publication US20070117743A1, “New antitumoral compounds” (priority 2003, published 2007)
# Where two headings read alike, the source gives them in different places. Where a SMILES comes first, the peptide text is derived from it. Bridges are numbered along the chain shown (N, C = ends). [ ]: non-standard residue; d: D form. The star is where a group is joined. ξ: configuration not given here. Pro(3ξ,4ξ-(CH2)4) = O=C(O)[C@H]1NCC2CCCCC21; Hexanoyl(4S-Me) = CC[C@H](C)CCC(=O)*; d(aIle) = CC[C@H](C)[C@@H](N)C(=O)O; d(aThr) = C[C@@H](O)[C@@H](N)C(=O)O; Hexanoyl(5-Me) = CC(C)CCCC(=O)*; 2Thi = N[C@@H](Cc1cccs1)C(=O)O; Phg = N[C@H](C(=O)O)c1ccccc1; Orn = NCCC[C@H](N)C(=O)O; Dhb = C/C=C(\N)C(=O)O
# How the values were obtained:
# Type in all cases: cell-based, human
# LoVo = experiment: SRB colorimetric assay of cell growth and viability, LoVo; conditions: 48 hours exposure; for CC50: read-out: LC50 LOVO
# HeLa = experiment: SRB colorimetric assay of cell growth and viability, HeLa; conditions: 48 hours exposure; for CC50: read-out: LC50 HELA
# DU-145 = experiment: SRB colorimetric assay of cell growth and viability, DU-145; conditions: 48 hours exposure
# IGROV-1 = experiment: SRB colorimetric assay of cell growth and viability, IGROV-1; conditions: 48 hours exposure
# HT-29 = experiment: SRB colorimetric assay of cell growth and viability, HT-29; conditions: 48 hours exposure; for GI50: read-out: GI50 HT-29; for CC50: read-out: LC50 HT-29
# PANC-1 = experiment: SRB colorimetric assay of cell growth and viability, PANC-1; conditions: 48 hours exposure; for CC50: read-out: LC50 PANC-1
# SK-MEL-28 = experiment: SRB colorimetric assay of cell growth and viability, SK-MEL-28; conditions: 48 hours exposure; for CC50: read-out: LC50 MEL-28
# HeLa-APL = experiment: SRB colorimetric assay of cell growth and viability, HeLa-APL; conditions: 48 hours exposure; for CC50: read-out: LC50 HELA-APL
# LoVo-Dox = experiment: SRB colorimetric assay of cell growth and viability, LoVo-Dox; conditions: 48 hours exposure; for CC50: read-out: LC50 LOVO-DOX
# Procedure, shortened: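 Cells in RPMI 1640 with 10% FBS were seeded at 5×10^3 per well and left 18 hours drug-free before compounds (10 to 10^−8 μg/mL in DMSO:EtOH:PBS 0.5:0.5:99) were added for 48 hours. TCA-fixed cells were stained with SRB and read at 490 nm; triplicate wells gave GI, TGI and LC.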
# SK-BR-3 = experiment: SRB colorimetric assay of cell growth and viability, SK-BR-3; conditions: 48 hours exposure
# K-562 = experiment: SRB colorimetric assay of cell growth and viability, K-562; conditions: 48 hours exposure; for CC50: read-out: LC50 K-562
# A-549 = experiment: SRB colorimetric assay of cell growth and viability, A-549; conditions: 48 hours exposure; for GI50: read-out: GI50 A-549; for CC50: read-out: LC50 A-549
# IGROV-ET = experiment: SRB colorimetric assay of cell growth and viability, IGROV-ET; conditions: 48 hours exposure; for CC50: read-out: LC50 IGROV-ET
structure (smiles),measurement,setting,value
"C/C=C1\NC(=O)[C@H](Cc2cccs2)NC(=O)[C@@H](C(C)C)NC(=O)[C@@H]([C@@H](C)CC)NC(=O)[C@H](NC(=O)[C@H](NC(=O)[C@H](CCCN)NC(=O)[C@H]2CCCN2C(=O)[C@H](NC(=O)[C@@H](NC(=O)[C@@H](NC(=O)[C@H](NC(=O)CC[C@@H](C)CC)C(C)C)[C@@H](C)O)C(C)C)C(C)C)[C@@H](C)CC)[C@@H](C)OC(=O)[C@H](C(C)C)NC1=O [Compound 76, [Thi^3, (4S)-MeHex^14]-KF] ({Hexanoyl(4S-Me)}-[dV]TV[dV][dP][Orn][d(aIle)][d(aThr)][d(aIle)][dV][2Thi][Dhb]V; ester 8-C)",GI50,LoVo; SRB,0.243 µM
same,TGI LOVO,LoVo; SRB,7.21E−07 Molar
same,CC50,LoVo; SRB,2.16 µM
same,GI50,HeLa; SRB,1.18 µM
same,TGI HELA,HeLa; SRB,2.01E−06 Molar
same,CC50,HeLa; SRB,3.45 µM
same,GI50,DU-145; SRB,1.2 µM
same,LC50 (concentration causing 50% net cell kill),DU-145; SRB,3.75 µM
same,TGI DU-145,DU-145; SRB,2.12E−06 Molar
same,GI50,IGROV-1; SRB,1.18 µM
same,LC50 (concentration causing 50% net cell killing),IGROV-1; SRB,3.87 µM
same,TGI IGROV,IGROV-1; SRB,2.14E−06 Molar
same,TGI HT-29,HT-29; SRB,1.74E−06 Molar
same,GI50,HT-29; SRB,0.842 µM
same,CC50,HT-29; SRB,3.59 µM
same,GI50,PANC-1; SRB,5.93 µM
same,TGI PANC-1,PANC-1; SRB,6.74E−06 Molar
same,CC50,PANC-1; SRB,6.74 µM
same,GI50,SK-MEL-28; SRB,1.54 µM
same,TGI MEL-28,SK-MEL-28; SRB,2.52E−06 Molar
same,CC50,SK-MEL-28; SRB,4.14 µM
same,GI50,HeLa-APL; SRB,1.35 µM
same,TGI HELA-APL,HeLa-APL; SRB,2.28E−06 Molar
same,CC50,HeLa-APL; SRB,3.86 µM
same,GI50,LoVo-Dox; SRB,0.147 µM
same,TGI LOVO-DOX,LoVo-Dox; SRB,2.61E−07 Molar
same,CC50,LoVo-Dox; SRB,0.463 µM
same,GI50,SK-BR-3; SRB,0.313 µM
same,LC50,SK-BR-3; SRB,2.04 µM
same,TGI SK-BR-3,SK-BR-3; SRB,6.26E−07 Molar
same,GI50,K-562; SRB,1.71 µM
same,TGI K-562,K-562; SRB,4.01E−06 Molar
same,CC50,K-562; SRB,6.74 µM
same,TGI A-549,A-549; SRB,2.60E−06 Molar
same,GI50,A-549; SRB,1.53 µM
same,CC50,A-549; SRB,4.43 µM
same,GI50,IGROV-ET; SRB,1 µM
same,TGI IGROV-ET,IGROV-ET; SRB,1.85E−06 Molar
same,CC50,IGROV-ET; SRB,3.41 µM
"C/C=C1\NC(=O)[C@@H]2C3CCCCC3CN2C(=O)[C@@H](C(C)C)NC(=O)[C@@H]([C@@H](C)CC)NC(=O)[C@H](NC(=O)[C@H](NC(=O)[C@H](CCCN)NC(=O)[C@H]2CCCN2C(=O)[C@H](NC(=O)[C@@H](NC(=O)[C@@H](NC(=O)[C@H](NC(=O)CC[C@@H](C)CC)C(C)C)[C@@H](C)O)C(C)C)C(C)C)[C@@H](C)CC)[C@@H](C)OC(=O)[C@H](C(C)C)NC1=O (stereo partly drawn) [Compound 79, [Oic^3, (4S)-MeHex^14]-KF] ({Hexanoyl(4S-Me)}-[dV]TV[dV][dP][Orn][d(aIle)][d(aThr)][d(aIle)][dV][Pro(3ξ,4ξ-(CH2)4)][Dhb]V; ester 8-C)",GI50,LoVo; SRB,0.591 µM
same,TGI LOVO,LoVo; SRB,1.40E−06 Molar
same,CC50,LoVo; SRB,3.02 µM
same,GI50,HeLa; SRB,2.69 µM
same,TGI HELA,HeLa; SRB,6.75E−06 Molar
same,CC50,HeLa; SRB,≥ 6.75 µM
same,GI50,DU-145; SRB,6.01 µM
same,LC50 (concentration causing 50% net cell kill),DU-145; SRB,≥ 6.75 µM
same,TGI DU-145,DU-145; SRB,6.75E−06 Molar
same,GI50,IGROV-1; SRB,1.91 µM
same,LC50 (concentration causing 50% net cell killing),IGROV-1; SRB,5.55 µM
same,TGI IGROV,IGROV-1; SRB,3.25E−06 Molar
same,TGI HT-29,HT-29; SRB,2.43E−06 Molar
same,GI50,HT-29; SRB,1.44 µM
same,CC50,HT-29; SRB,4.09 µM
same,GI50,PANC-1; SRB,≥ 6.75 µM
same,TGI PANC-1,PANC-1; SRB,6.75E−06 Molar
same,CC50,PANC-1; SRB,≥ 6.75 µM
same,GI50,SK-MEL-28; SRB,2.31 µM
same,TGI MEL-28,SK-MEL-28; SRB,6.75E−06 Molar
same,CC50,SK-MEL-28; SRB,≥ 6.75 µM
same,GI50,HeLa-APL; SRB,4.8 µM
same,TGI HELA-APL,HeLa-APL; SRB,6.75E−06 Molar
same,CC50,HeLa-APL; SRB,≥ 6.75 µM
same,GI50,LoVo-Dox; SRB,0.387 µM
same,TGI LOVO-DOX,LoVo-Dox; SRB,1.15E−06 Molar
same,CC50,LoVo-Dox; SRB,2.56 µM
same,GI50,SK-BR-3; SRB,0.796 µM
same,LC50,SK-BR-3; SRB,3.43 µM
same,TGI SK-BR-3,SK-BR-3; SRB,1.65E−06 Molar
same,GI50,K-562; SRB,1.71 µM
same,TGI K-562,K-562; SRB,4.02E−06 Molar
same,CC50,K-562; SRB,≥ 6.75 µM
same,TGI A-549,A-549; SRB,6.75E−06 Molar
same,GI50,A-549; SRB,4.42 µM
same,CC50,A-549; SRB,≥ 6.75 µM
same,GI50,IGROV-ET; SRB,1.98 µM
same,TGI IGROV-ET,IGROV-ET; SRB,4.28E−06 Molar
same,CC50,IGROV-ET; SRB,≥ 6.75 µM
"C/C=C1\NC(=O)[C@H](c2ccccc2)NC(=O)[C@@H](C(C)C)NC(=O)[C@@H]([C@@H](C)CC)NC(=O)[C@H](NC(=O)[C@H](NC(=O)[C@H](CCCN)NC(=O)[C@H]2CCCN2C(=O)[C@H](NC(=O)[C@@H](NC(=O)[C@@H](NC(=O)[C@H](NC(=O)CCCC(C)C)C(C)C)[C@@H](C)O)C(C)C)C(C)C)[C@@H](C)CC)[C@@H](C)OC(=O)[C@H](C(C)C)NC1=O [Compound 87, [Phg^3]-KF] ({Hexanoyl(5-Me)}-[dV]TV[dV][dP][Orn][d(aIle)][d(aThr)][d(aIle)][dV][Phg][Dhb]V; ester 8-C)",GI50,LoVo; LOVO,0.957 µM
same,TGI LOVO,LoVo; LOVO,1.90E−06 Molar
same,CC50,LoVo; LOVO,1.9 µM
same,GI50,HeLa; HELA,1.9 µM
same,TGI HELA,HeLa; HELA,1.90E−06 Molar
same,CC50,HeLa; HELA,1.9 µM
same,GI50,DU-145; DU-145,1.9 µM
same,LC50 (concentration causing 50% net cell kill),DU-145; DU-145,1.9 µM
same,TGI DU-145,DU-145; DU-145,1.90E−06 Molar
same,GI50,IGROV-1; IGROV,0.919 µM
same,LC50 (concentration causing 50% net cell killing),IGROV-1; IGROV,1.9 µM
same,TGI IGROV,IGROV-1; IGROV,1.90E−06 Molar
same,TGI HT-29,HT-29; HT-29,1.90E−06 Molar
same,GI50,HT-29; HT-29,1.58 µM
same,CC50,HT-29; HT-29,1.9 µM
same,GI50,PANC-1; PANC-1,1.9 µM
same,TGI PANC-1,PANC-1; PANC-1,1.90E−06 Molar
same,CC50,PANC-1; PANC-1,1.9 µM
same,GI50,SK-MEL-28; MEL-28,1.9 µM
same,TGI MEL-28,SK-MEL-28; MEL-28,1.90E−06 Molar
same,CC50,SK-MEL-28; MEL-28,1.9 µM
same,GI50,HeLa-APL; HELA-APL,1.9 µM
same,TGI HELA-APL,HeLa-APL; HELA-APL,1.90E−06 Molar
same,CC50,HeLa-APL; HELA-APL,1.9 µM
same,GI50,LoVo-Dox; LOVO-DOX,0.513 µM
same,TGI LOVO-DOX,LoVo-Dox; LOVO-DOX,1.32E−06 Molar
same,CC50,LoVo-Dox; LOVO-DOX,1.9 µM
same,GI50,SK-BR-3; SK-BR-3,0.748 µM
same,LC50,SK-BR-3; SK-BR-3,1.87 µM
same,TGI SK-BR-3,SK-BR-3; SK-BR-3,1.19E−06 Molar
same,GI50,K-562; K-562,1.9 µM
same,TGI K-562,K-562; K-562,1.90E−06 Molar
same,CC50,K-562; K-562,1.9 µM
same,TGI A-549,A-549; A-549,1.90E−06 Molar
same,GI50,A-549; A-549,1.9 µM
same,CC50,A-549; A-549,1.9 µM
same,GI50,IGROV-ET; IGROV-ET,1.29 µM
same,TGI IGROV-ET,IGROV-ET; IGROV-ET,1.90E−06 Molar
same,CC50,IGROV-ET; IGROV-ET,1.9 µM
